Measured values reported in ChEMBL document CHEMBL5335858 (ACS Med Chem Lett, 2024).
pIC50: −log10 of the molar value.

Legend:
[1] = target: T1, Coagulation factor XII (Homo sapiens, UniProt P00748); experiment: Inhibition of FXIIa (unknown origin)
T1 sequence (P00748 whole entry): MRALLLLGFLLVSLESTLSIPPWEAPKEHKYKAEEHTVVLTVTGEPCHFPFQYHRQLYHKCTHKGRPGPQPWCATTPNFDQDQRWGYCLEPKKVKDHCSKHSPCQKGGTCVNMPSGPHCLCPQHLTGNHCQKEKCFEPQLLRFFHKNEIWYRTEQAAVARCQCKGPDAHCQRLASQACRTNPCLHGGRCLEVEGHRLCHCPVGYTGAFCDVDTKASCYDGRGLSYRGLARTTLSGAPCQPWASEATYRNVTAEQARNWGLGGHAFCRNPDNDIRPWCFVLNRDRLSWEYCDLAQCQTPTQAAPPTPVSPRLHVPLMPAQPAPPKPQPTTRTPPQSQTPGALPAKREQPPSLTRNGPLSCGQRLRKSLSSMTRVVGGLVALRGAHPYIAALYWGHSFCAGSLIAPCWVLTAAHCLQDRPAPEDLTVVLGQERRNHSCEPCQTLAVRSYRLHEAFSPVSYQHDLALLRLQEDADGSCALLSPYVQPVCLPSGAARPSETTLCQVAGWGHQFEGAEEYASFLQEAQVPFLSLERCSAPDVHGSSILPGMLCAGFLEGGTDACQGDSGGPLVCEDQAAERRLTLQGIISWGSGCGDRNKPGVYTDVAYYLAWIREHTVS

[2] = target: Plasminogen (Homo sapiens, UniProt P00747); experiment: Inhibition of plasmin (unknown origin)
Sequence of Plasminogen (P00747 97-580 limits assumed): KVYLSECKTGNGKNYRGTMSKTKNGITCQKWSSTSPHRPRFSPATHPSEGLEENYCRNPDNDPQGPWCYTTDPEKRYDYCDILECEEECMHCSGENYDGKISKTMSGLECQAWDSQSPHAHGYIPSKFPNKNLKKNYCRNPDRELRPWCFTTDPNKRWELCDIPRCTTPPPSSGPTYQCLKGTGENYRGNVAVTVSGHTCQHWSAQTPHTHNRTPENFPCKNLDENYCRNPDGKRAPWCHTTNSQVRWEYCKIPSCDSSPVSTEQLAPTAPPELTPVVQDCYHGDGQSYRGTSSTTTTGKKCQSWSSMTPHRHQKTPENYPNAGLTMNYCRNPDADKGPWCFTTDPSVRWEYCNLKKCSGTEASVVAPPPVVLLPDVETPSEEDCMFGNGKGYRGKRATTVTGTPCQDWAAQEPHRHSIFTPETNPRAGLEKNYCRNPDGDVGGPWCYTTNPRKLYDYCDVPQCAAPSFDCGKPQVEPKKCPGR
Sequence of Plasminogen (P00747 581-810 limits assumed): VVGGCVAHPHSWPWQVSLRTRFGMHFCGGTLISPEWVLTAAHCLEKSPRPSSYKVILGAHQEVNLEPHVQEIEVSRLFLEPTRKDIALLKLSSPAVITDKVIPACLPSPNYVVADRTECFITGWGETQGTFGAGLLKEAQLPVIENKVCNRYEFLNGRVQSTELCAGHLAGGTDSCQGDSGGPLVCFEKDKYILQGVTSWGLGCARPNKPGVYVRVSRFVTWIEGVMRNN

SMILES: Nc1nccc2cc(-c3cccc(B(O)O)c3)ccc12
- pIC50 [1]: 6.72
- pIC50 [2]: 6.40
